Assay results from paper PMC7362424, “Structural elucidation, molecular docking, α-amylase and α-glucosidase inhibition studies of 5-amino-nicotinic acid derivatives” (BMC Chemistry, 2020).

melting point | Compound
> 300 °C | Cc1ccc(NC(=S)Nc2cncc(C(=O)O)c2)cc1Cl [Compound 9, 5-(3-(3-Chloro-4-methylphenyl)thioureido) pyridine-3-carboxylic acid]
> 300 °C | O=C(O)c1cncc(NC(=S)Nc2ccc(Cl)cc2)c1 [Compound 2, 5-(3-(4-Chlorophenyl)thioureido)pyridine-3-carboxylic acid]
> 300 °C | O=C(O)c1cncc(NC(=S)Nc2ccc(F)cc2)c1 [Compound 4, 5-(3-(4-Fluorophenyl)thioureido)pyridine-3-carboxylic acid]
> 300 °C | O=C(O)c1cncc(NC(=S)Nc2cccc(F)c2)c1 [Compound 11, 5-(3-(3-Fluorophenyl)thioureido) pyridine-3-carboxylic acid]
> 300 °C | O=C(O)c1cncc(NC(=S)Nc2ccc([N+](=O)[O-])cc2)c1 [Compound 5, 5-(3-(4-Nitrophenyl)thioureido) pyridine-3-carboxylic acid]
> 300 °C | O=C(O)c1cncc(NC(=S)Nc2ccccc2Br)c1 [Compound 12, 5-(3-(2-Bromophenyl)thioureido) pyridine-3-carboxylic acid]
> 300 °C | O=C(O)c1cncc(NC(=S)Nc2ccccc2)c1 [Compound 1, 5-(3-Phenylthioureido)pyridine-3-carboxylic acid]
> 300 °C | O=C(O)c1cncc(NC(=S)Nc2ccccc2F)c1 [Compound 10, 5-(3-(2-Fluorophenyl)thioureido) pyridine-3-carboxylic acid]
> 300 °C | O=C(O)c1cncc(NC(=S)Nc2ccc(Br)cc2)c1 [Compound 7, 5-(3-(4-Bromophenyl)thioureido) pyridine-3-carboxylic acid]
> 300 °C | COc1ccc(NC(=S)Nc2cncc(C(=O)O)c2)cc1 [Compound 6, 5-(3-(4-Methoxyphenyl)thioureido) pyridine-3-carboxylic acid]
> 300 °C | O=C(O)c1cncc(NC(=S)Nc2ccc(C(F)(F)F)cc2)c1 [Compound 8, 5-(3-(4-(Trifluoromethyl)phenyl)thioureido) pyridine-3-carboxylic acid]
> 300 °C | O=C(O)c1cncc(NC(=S)Nc2cccc(Br)c2)c1 [Compound 13, 5-(3-(3-Bromophenyl)thioureido) pyridine-3-carboxylic acid]
> 300 °C | Cc1ccc(NC(=S)Nc2cncc(C(=O)O)c2)cc1 [Compound 3, 5-(3-p-Tolylthioureido)pyridine-3-carboxylic acid]
